One test relates to B16-F10 tumors. Description: B16-F10 melanoma model in vivo. Particulars: 2 doses of 5 mg/kg 24 h apart; also VDR gene; duplicate tumors from two animals. Details: species or system mouse. On the procedure:
We were then interested in comparing the efficacy of ZG compounds and other hybrids in tumor models in vivo. We focused initially on the B16-F10 melanoma which is syngeneic with C57BL/6 mice. The efficacy of ZG-126 in vivo in this model was tested in two experiments. […] In a second experiment, we compared the antitumor efficacy of hybrids at ∼0.5 MTD doses. […] All treatments were well tolerated, and body weights were unaffected (Figure 6C).
(§1) Finally, mice were sacrificed, and lungs of 4T1-bearing mice were removed to evaluate the efficiency of treatments on lung metastases.

Another test addresses HDAC9 (Homo sapiens, UniProt Q9UKV0). The test can be described thus: Biochemical assay for HDAC inhibition, HDAC9. To be noted: concentrations as high as 100 μM.
Test [1] relates to hyperacetylation of tubulin, H3K9 and H3K27. The test can be described thus: Western blot of tubulin and histone H3 hyperacetylation in 4TO7 cells. Particulars: hybrids 10 μM, SAHA 100 nM, 6 h. In kind it is cell-based, mouse. The protocol: (§2) The potential for compounds as HDACi’s can be rapidly tested in cells in culture by monitoring the hyperacetylation of histone H3 and tubulin. H3 acetylation is controlled by multiple class I enzymes, and the class IIb enzyme HDAC6 regulates tubulin acetylation.[36]−[39] […] (Figure 4A).
(§3) Figure 4 Evidence for HDAC inhibition in 4T1 and 4TO7 TNBC cells. Western blots and quantification of triplicate biological replicates analyzing the effects of 1,25D (100 nM), SAHA (100 nM), and hybrids (10 μM) on hyperacetylation of tubulin (A,D), H3K9 (B,E), and H3K27 (C,F) in 4T1 (A–C) and 4TO7 cells (D–F).
After 6 h treatments, 4T1, 4T07, or B16-F10 cells were solubilized in lysis buffer (20 mM Tris, pH 8, 150 mM NaCl, 1% Triton X-100, 3.5 mM SDS, and 13 mM deoxycholic acid), and proteins were separated on a 4–15% Tris/glycine/SDS gel (Bio-Rad). Then, the proteins were transferred to a nitrocellulose membrane, followed by blocking in 5% skim milk in Tris-buffered saline (TBS, 1×) solution. […] Finally, signals were detected using Clarity ECL substrates (Bio-Rad) and a ChemiDoc Imaging System. Changes in protein levels were quantified relative to control using Image Lab software (version 6.0.1) after normalization to GAPDH. […]
Background: A western blot detects proteins with antibodies after separation by electrophoresis.

Another test concerns 4T1 tumors. The test can be described thus: 4T1 TNBC model in vivo (primary tumor and lung metastases). Details: species or system mouse. To be noted: 4T1 model; for #Surface metastases (lung): vehicle 166. On the procedure:
As 4T1 cells are aggressively metastatic, we can also assess the antimetastatic activity in the same experiment. All treatments were well tolerated, and, as in the B16-F10 model, none induced weight loss or other signs of stress over the course of the experiment (Figure 7A). Treatments reduced the primary tumor burden to varying degrees.
The antimetastatic activity was determined by counting the number of surface lung metastases of duplicate samples using a stereomicroscope. […] This degree of efficacy is remarkable, as in previous experiments, DK-406 reduced the metastatic burden by ∼2-fold.[30]
as §1

In the next test the target is HDAC4 (Homo sapiens, UniProt P56524). The test can be described thus: Biochemical assay for HDAC inhibition, HDAC4. Particulars: read-out: IC50 HDAC4.
HDAC4, sequence (P56524 whole entry): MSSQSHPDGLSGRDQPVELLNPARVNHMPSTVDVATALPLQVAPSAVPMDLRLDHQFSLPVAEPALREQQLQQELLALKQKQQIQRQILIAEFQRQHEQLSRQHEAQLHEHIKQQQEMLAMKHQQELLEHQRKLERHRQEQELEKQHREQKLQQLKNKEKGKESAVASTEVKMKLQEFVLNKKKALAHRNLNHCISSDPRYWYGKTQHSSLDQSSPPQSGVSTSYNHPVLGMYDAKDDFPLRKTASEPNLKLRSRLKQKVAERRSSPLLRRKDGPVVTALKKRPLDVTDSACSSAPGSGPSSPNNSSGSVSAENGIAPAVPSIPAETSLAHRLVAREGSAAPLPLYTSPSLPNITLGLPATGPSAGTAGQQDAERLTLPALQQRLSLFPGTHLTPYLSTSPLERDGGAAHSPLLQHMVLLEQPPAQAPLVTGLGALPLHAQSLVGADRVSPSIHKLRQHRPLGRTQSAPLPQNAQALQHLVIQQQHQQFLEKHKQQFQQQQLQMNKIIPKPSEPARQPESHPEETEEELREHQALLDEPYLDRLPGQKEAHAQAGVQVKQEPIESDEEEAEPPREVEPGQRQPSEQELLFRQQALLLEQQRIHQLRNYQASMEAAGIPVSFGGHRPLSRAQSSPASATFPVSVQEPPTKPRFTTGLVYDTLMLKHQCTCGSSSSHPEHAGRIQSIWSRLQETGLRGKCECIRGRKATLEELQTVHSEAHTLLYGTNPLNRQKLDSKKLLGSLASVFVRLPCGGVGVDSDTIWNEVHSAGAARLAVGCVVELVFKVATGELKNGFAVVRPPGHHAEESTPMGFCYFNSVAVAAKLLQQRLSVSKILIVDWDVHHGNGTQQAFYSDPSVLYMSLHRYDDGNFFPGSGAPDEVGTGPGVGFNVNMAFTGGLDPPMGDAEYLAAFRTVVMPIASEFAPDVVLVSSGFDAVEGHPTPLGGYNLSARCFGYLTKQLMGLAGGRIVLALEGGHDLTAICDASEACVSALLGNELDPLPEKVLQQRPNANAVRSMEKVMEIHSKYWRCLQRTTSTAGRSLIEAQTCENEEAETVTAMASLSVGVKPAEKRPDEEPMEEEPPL
In test [2] the test system is macrophage infiltration into 4T1 tumors. Description: Immunofluorescence of macrophages in 4T1 tumors (F4/80, Arg1). In kind it is in vivo, mouse. On the procedure: Inhibition of PD-L1 and CD80/CD86 is directly achieved through the immune checkpoint blockade of their receptors using anti-CTLA-4 and anti-PD-1 antibodies.[69],[70]
Primary tumor tissues were fixed using 4% paraformaldehyde and subsequently dehydrated in sucrose solutions ranging from 10 to 30% for approximately 24 h each. The tissues were then embedded in base molds (Fisherbrand—#22363553) containing an optimal cutting temperature (OCT) compound (Fisher Healthcare—#4585). The tissue blocks were placed immediately on dry ice until the OCT compound solidified, and then they were stored at −80 °C. Prior to IF staining, sections of 5–10 μm were obtained using a Leica CM3050 S cryostat and SuperFrost Plus slides (Fisherbrand—#1255015). The tumor sections were then incubated with blocking buffer [phosphate-buffered saline containing 2% bovine serum albumin, 0.3% Triton X-100, 1% FBS, and 10% goat serum] for 1 h at RT. To detect macrophages in the TME, the sections were incubated with a pan-macrophage rat monoclonal antibody F4/80 (Abcam—#6640) diluted in blocking buffer overnight at 4 °C. Sixteen hours later, tissues were washed 3 times with 100 mM Tris–HCl and then incubated with a secondary goat antirat antibody (Invitrogen—#A11081) for 1 h at RT. […] Subsequently, 4′,6-diamidino-2-phenylindole (DAPI; Invitrogen—#D3571) was used to counterstain the nuclei for 5 min at RT. Finally, the slides were mounted using Fluoromount-G medium (Invitrogen—#00495802) and coverslips (Fisher Scientific—#12545E) and imaged with a Zeiss LSM 710 confocal microscope with ×20 objective. Quantification was carried out by QuPath software (version 0.3.2). F4/80+ macrophages and F4/80+ Arg1+ M2 macrophages were classified based on their fluorescence signal.

Test [3] deals with hyperacetylation of tubulin, H3K9 and H3K27. Description: Western blot of tubulin and histone H3 hyperacetylation in 4T1 cells. The class given is cell-based, mouse. Particulars: hybrids 10 μM, 6 h. On the procedure:
as §2, §3
After 6 h treatments, 4T1, 4T07, or B16-F10 cells were solubilized in lysis buffer (20 mM Tris, pH 8, 150 mM NaCl, 1% Triton X-100, 3.5 mM SDS, and 13 mM deoxycholic acid), and proteins were separated on a 4–15% Tris/glycine/SDS gel (Bio-Rad). Then, the proteins were transferred to a nitrocellulose membrane, followed by blocking in 5% skim milk in Tris-buffered saline (TBS, 1×) solution. After blocking, the membranes were incubated overnight at 4 °C with the primary antibodies against acetylated tubulin (Sigma-Aldrich—#T7451), tubulin (Sigma-Aldrich—#T9026), acetyl-histone H3(Lys9) (Merck Millipore—#07-352), acetyl-histone H3 (Lys27) (Abcam—#ab4729), total histone H3 (Cell Signaling Technology (CST)—#3638), and GAPDH (Abcam—#ab8245). Then, the membranes were incubated with antimouse (CST—#7076) or antirabbit (CST—#7074) IgG HRP-linked secondary antibodies at recommended concentrations. Finally, signals were detected using Clarity ECL substrates (Bio-Rad) and a ChemiDoc Imaging System. Changes in protein levels were quantified relative to control using Image Lab software (version 6.0.1) after normalization to GAPDH. Western blot experiments were carried out three times.

Read-outs that look alike come from different tables or passages of the source.

The record followed here is PMC11249012 (Journal of Medicinal Chemistry, 2024).

HDAC9, sequence (Q9UKV0 whole entry): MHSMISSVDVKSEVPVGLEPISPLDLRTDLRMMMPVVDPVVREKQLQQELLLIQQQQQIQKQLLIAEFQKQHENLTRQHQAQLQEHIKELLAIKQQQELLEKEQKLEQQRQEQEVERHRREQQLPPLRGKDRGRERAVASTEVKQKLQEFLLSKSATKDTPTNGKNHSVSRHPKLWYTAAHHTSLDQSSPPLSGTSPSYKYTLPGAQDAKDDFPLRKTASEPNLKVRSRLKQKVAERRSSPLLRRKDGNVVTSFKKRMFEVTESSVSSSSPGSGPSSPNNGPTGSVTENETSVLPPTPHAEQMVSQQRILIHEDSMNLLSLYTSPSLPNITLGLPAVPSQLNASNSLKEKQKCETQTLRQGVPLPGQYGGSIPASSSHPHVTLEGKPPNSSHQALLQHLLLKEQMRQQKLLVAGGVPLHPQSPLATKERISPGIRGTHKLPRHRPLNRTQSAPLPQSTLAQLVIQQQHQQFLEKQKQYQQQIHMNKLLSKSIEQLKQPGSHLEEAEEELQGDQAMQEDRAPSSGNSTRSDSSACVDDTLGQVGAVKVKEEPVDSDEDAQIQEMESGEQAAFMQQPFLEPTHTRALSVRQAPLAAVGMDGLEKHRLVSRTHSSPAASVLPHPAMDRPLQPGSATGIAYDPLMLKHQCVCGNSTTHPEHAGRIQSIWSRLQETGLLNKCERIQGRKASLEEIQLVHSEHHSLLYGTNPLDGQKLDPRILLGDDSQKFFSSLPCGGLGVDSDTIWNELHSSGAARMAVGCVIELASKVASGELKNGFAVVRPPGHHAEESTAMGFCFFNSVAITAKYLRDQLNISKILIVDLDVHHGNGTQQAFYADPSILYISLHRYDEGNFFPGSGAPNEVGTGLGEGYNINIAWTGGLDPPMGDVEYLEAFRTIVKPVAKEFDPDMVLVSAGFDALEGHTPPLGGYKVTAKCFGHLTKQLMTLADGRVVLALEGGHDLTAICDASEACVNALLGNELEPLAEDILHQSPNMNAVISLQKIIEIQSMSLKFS

By IC50 is commonly meant the midpoint of a concentration-inhibition curve. In the case of `CCC(CC)(c1ccc(C(=O)NCCCCC(=O)NO)cc1)c1ccc(OCC(O)C(C)(C)C)c(C)n1` (stereo not drawn) [ZG-126, 4-(3-(5-(2-Hydroxy-3,3-dimethylbutoxy)-6-methylpyridin-2-yl)pentan-3-yl)-N-(5-(hydroxyamino)-5-oxopentyl)benzamide], the “Cyp24a1 induction in B16-F10 tumors” value in the test on B16-F10 tumors is on record as “robust induction of Cyp24a1”. For the same molecule, the “inhibition of HDAC9” value at HDAC9 was “no or very limited inhibition”. For the same molecule, the “tubulin and histone hyperacetylation” value in test [1] is “induced higher levels of tubulin and histone hyperacetylation than SAHA”. The “reduction in tumor burden” value in the test on 4T1 tumors (BALB/c mice, ZG-126 high dose 5 mg/kg, statistically significant) is about 50%. Moreover, the “#Surface metastases (lung)” value was 47 in the test on 4T1 tumors (1,25D 0.25 μg/kg, SAHA 80 mg/kg, AM-193 0.2 mg/kg, ZG-126 high 5.0 mg/kg) and 126 in the test on 4T1 tumors (ZG-126 low 1.5 mg/kg). The “reduction of surface lung metastases” value in the test on 4T1 tumors (high-dose ZG-126 (5 mg/kg)) is about 4 fold. Moreover, the IC50 is 68 µM at HDAC4 and 67.6 µM at HDAC4 (Table 1, purified enzyme, unit inferred). Also, in test [2] (4T1 tumors), the “reduction of the proportion of M2-polarized immunosuppressive macrophages” value worked out at 2 fold. Besides, in test [2] (Figure 8B), the “total macrophage infiltration into 4T1 tumors (F4/80 staining)” value is on record as “significantly reduced”. In addition, the “percentage of anti-inflammatory M2 macrophages (Arg1 staining)” value in test [2] (Figure 8C-E) was “most efficacious at reducing the percentage of anti-inflammatory M2 macrophages”. For the same molecule, the “reduction of total macrophage infiltration” value in test [2] (TNBC (4T1) tumors) is on record as 2 fold. Also, the “histone H3 hyperacetylation at lysine 9 and 27 (H3K9 and H3K27)” value in test [3] is recorded as “comparable or superior to AM-193”. Besides, in test [3] (SAHA 100 nM), the tubulin acetylation result is given as “by far the most efficacious”.
